Earlier results on 1 compound are cited in patent US8703753B2, “Use of tellurium compounds for the treatment of actinic keratosis” (Biomas Ltd., priority 2005, dated 2014).

Like-named read-outs stand apart in the source and are kept apart here.

Data set [1] has as its system interferon (IFN). Conditions: mice.
For data set [2] the following is noted: rats, intravenous and intramuscular administration.
Data set [3] relates to interferon (IFN). Particulars: humans.

Consider `Cl[TeH]1(Cl)(Cl)OCCO1.N` [AS101, ammonium trichloro(dioxyethylene-O,O′)tellurate], for which the “activation of interferon (IFN)” value in the data set with interferon (IFN) [1] and in the data set on interferon (IFN) [3] was “potent activator” in each case. The “effect on IL-10 at the m-RNA level” value with IL-10 is “inhibit IL-10”. Further, the “LD50 relative to the immunologically effective dose” value in data set [2] is 500-1000 folds.
